Read-outs that look alike come from different tables or passages of the source.
Columns and labels:
[1] = biological target: T1, Acetylcholinesterase (AChE, E.C. 3.1.1.7, from human erythrocytes) (Homo sapiens, UniProt P22303); test: biochemical; assay type: biochemical; conditions: for Selectivity for AChE: IC50(BuChE)/IC50(AChE); for IC50: means ± SD of three independent experiments
T1 construct: Acetylcholinesterase (AChE, E.C. 3.1.1.7, from human erythrocytes); purchased Sigma-Aldrich (Steinheim, Germany); host or cells: human erythrocytes (natural source)
T1 sequence (P22303 32-617 isoform P22303-2 limits assumed): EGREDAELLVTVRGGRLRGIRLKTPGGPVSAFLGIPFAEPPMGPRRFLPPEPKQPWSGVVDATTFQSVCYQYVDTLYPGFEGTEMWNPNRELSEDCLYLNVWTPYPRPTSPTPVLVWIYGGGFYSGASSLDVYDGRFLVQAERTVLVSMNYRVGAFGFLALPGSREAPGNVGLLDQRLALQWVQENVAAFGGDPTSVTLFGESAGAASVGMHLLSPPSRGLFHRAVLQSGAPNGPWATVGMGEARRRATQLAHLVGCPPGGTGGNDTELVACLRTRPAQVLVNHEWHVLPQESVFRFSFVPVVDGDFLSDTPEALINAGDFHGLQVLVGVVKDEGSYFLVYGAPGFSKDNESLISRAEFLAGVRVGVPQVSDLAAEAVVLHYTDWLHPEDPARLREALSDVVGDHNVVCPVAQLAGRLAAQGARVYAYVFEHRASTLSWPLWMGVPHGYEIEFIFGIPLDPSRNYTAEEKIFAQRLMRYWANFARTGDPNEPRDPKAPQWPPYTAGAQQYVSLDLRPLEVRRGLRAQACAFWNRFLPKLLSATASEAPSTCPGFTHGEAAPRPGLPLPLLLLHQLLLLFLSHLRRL
Procedure: (§1) The details were described previously.
(§2) Their potency was determined using the modified Ellman’s method and expressed as the half of maximal inhibitory concentration, IC50 [34].

[2] = RP-18 HPLC chromatography lipophilicity estimation; assay type: physicochemical; conditions: for −S (slope): methanol/acetate buffer pH 4.0; for log kw (intercept): methanol/acetate buffer pH 4.0, extrapolated to pure water
Procedure: The Eurosil Bioselect C18 (5 μm, 300 × 4.6 mm) column was used as the stationary phase. The mobile phase consisted of different volume mixtures of methanol and 20 mM acetate buffer as the aqueous phase to give pH 4.0. The organic modifier concentration ranged from 0.30 to 0.75, depending on the structure of the compound at 0.05 (0.1) intervals. The flow rate was 0.5 cm^3·min^−1 at room temperature. Measurements were made at 292 nm. The retention time of an unretained solute (t0) was determined by the injection of a small amount of acetone dissolved in water. […] This is described by the Soczewiński–Wachtmeister dependence: log k = log kw + S (% organic modifier)(1) in which log kw is the retention factor of a solute with pure water as the mobile phase (intercept) and S is the regression curve (slope). The log k values were calculated as log k = log (tR − t0)/t0, where tR is the retention time of a solute and t0 is the retention time of an unretained solute.
To find the structure–activity relationships, some quantities of the compounds were estimated (Table 5). They included the lipophilicity parameter log kw obtained by RP-HPLC and calculated in silico log P, the topological polar surface area (tPSA), and the molar refractivity (MR) (Table 5). The log kw and S parameters obtained by the extrapolation technique are commonly used as lipophilicity descriptors.

[3] = In vitro antioxidant activity assay (DPPH radical scavenging); conditions: DPPH 100 μM in methanol, 37 °C, 30 min; means ± SD of three experiments; read-out: IC50(DPPH) radical scavenging effect
Procedure: Antioxidant activity of each compound and standards (rutin) was assessed based on the radical scavenging effect of stable DPPH free radical. An amount of 10 μL of each tested compound or standard series of different concentrations (from 0.0 to 100 µM) was added to 9 mL of methanol solution of 2,2-diphenyl-1-picrylhydrazyl (DPPH) (100 μM). After incubation at 37 °C for 30 min, decrease in the absorbance of each solution was measured at 520 nm. The absorbance of the blank sample containing the same amount of DMSO and DPPH solution was also prepared and measured. All experiments were conducted in triplicate. The scavenging potential was compared with a solvent control (0% radical scavenging) and the standard compound. Radical scavenging activity (%AA) was calculated by the following formula: (%AA) = [(A0 − A1)/A0] × 100%(3) in which (A0) is the absorbance of the blank sample and (A1) is the absorbance of the tested compound (t = 30 min).
Reactive oxygen species are a causal factor in the process of aging and the cumulative damage has been associated with AD [45]. In this study, the DPPH radical scavenging activity of the newly synthesized compounds was estimated using the Brand-Williams method.

[4] = biological target: T2, butyrylcholinesterase (BuChE, E.C. 3.1.1.8, from equine serum) (Equus caballus, UniProt P81908); test: biochemical
T2 construct: butyrylcholinesterase (BuChE, E.C. 3.1.1.8, from equine serum); purchased Sigma-Aldrich (Steinheim, Germany); host or cells: equine serum (natural source)
T2 sequence (P81908 whole entry): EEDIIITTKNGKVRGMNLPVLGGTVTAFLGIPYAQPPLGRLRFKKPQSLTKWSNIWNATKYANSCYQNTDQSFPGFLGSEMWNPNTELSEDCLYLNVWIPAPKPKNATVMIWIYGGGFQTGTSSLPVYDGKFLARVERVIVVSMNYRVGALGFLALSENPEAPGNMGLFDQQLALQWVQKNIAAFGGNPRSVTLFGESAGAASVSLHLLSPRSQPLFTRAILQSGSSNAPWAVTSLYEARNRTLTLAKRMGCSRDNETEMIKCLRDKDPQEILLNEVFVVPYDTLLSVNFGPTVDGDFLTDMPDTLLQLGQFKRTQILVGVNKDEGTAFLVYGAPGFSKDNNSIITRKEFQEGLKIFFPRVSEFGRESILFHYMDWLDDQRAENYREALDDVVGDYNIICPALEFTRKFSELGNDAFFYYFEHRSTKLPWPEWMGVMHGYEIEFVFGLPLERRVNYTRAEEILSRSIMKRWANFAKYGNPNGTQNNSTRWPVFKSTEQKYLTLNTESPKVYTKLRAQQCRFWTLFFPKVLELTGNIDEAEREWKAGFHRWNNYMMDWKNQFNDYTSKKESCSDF
Procedure: as §1, §2

[5] = biological target: T3, Amyloid β-peptide (1–42) (Aβ42) (Homo sapiens, UniProt P05067); test: biochemical; conditions: ThT fluorescence, 24 h at 37 °C; means ± SD of three experiments; read-out: IC50(Aβ(1–42)) self-induced aggregation
T3 construct: Amyloid β-peptide, (1–42) (Aβ42), was purchased from Aldrich; purchased Aldrich
T3 sequence (P05067 672-713 limits assumed): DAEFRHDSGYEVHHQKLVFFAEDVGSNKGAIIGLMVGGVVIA
Procedure: Amyloid β-peptide, (1–42) (Aβ42), was purchased from Aldrich. Aβ42 was diluted in the phosphate buffer (pH 8.0) to obtain a 125.8 µM solution. The compounds under study were first dissolved in a small amount of methanol, and then further diluted in the phosphate buffer to the final concentration of 5–160 μM. To study the Aβ42 aggregation inhibition, the fluorescence emission of thioflavin T (ThT) was followed with curcumin as the reference compound [35, 36]. At first, the Aβ42 (10 μL) samples and the tested compounds (10 μL) were diluted with the phosphate buffer (60 μL) and then they were incubated for 24 h at 37 °C without stirring. As for the control, a sample of the peptide was incubated without the inhibitor. The tests were carried out in black, flat-bottom, 96-well plates. Then 20 µL of 2.5 µM ThT in 50 mM glycine–NaOH (pH 8.5) was added and incubated for 5 min. Fluorescence was monitored with the excitation at 446 nm and the emission at 490 nm. A time scan of fluorescence was performed and the intensity values reached the plateau (300 s). […]. The reported values were obtained as the mean ± SD of triplicate of three independent experiments.
Nowadays, the amyloid hypothesis has become the dominating paradigm for understanding AD [44]. Aβ(1–42) is the most amyloidogenic Aβ fragment found in the AD plaques. […].

AChE = conditions: Figure 1; cited from earlier work
[6] = means ± SD of three experiments, read-out: BuChE IC50

Compound	Selectivity for AChE [1]	IC50 [1]	−S (slope) [2]	log kw (intercept) [2]	IC50 [3]	IC50 [4, 6]	Selectivity for AChE with respect to BuChE (in words) [1]	IC50 [5]	Activity against AChE (in words) [1]	IC50 (AChE)	IC50 [4]
Oc1cc(O)c(-c2nc3cc(Cl)c(Cl)cc3[nH]2)cc1Cl [Compound 2, 4-(5,6-Dichloro-1H-benzimidazol-2-yl)-6-chlorobenzene-1,3-diol]	41.9	0.541 ± 0.036 µM	5.770	5.460	0.213 ± 0.08 µM	22.69 ± 0.078 µM					
Cc1c(O)ccc(-c2nc3ccc(C(F)(F)F)cc3[nH]2)c1O [Compound 3, 4-[6-(Trifluoromethyl)-1H-benzimidazol-2-yl]-2-methylbenzene-1,3-diol]	143.1	0.098 ± 0.005 µM	6.299	5.720		14.02 ± 0.111 µM					
CCc1cc(-c2nc3cc(C(F)(F)F)cc(Cl)c3[nH]2)c(O)cc1O [Compound 4, 4-(7-Chloro-5-(trifluoromethyl)-1H-benzimidazol-2-yl)-6-ethylbenzene-1,3-diol]	390.0	0.118 ± 0.009 µM	4.635	4.237		46.03 ± 0.104 µM	highly selective				
COc1ccc2nc(-c3cc(Cl)c(O)cc3O)[nH]c2c1 [Compound 6, 4-(6-Methoxy-1H-benzimidazol-2-yl)-6-chlorobenzene-1,3-diol]	203.4	0.092 ± 0.002 µM	5.390	4.808	0.362 ± 0.01 µM	18.71 ± 0.173 µM	highly selective	27 ± 2.29 µM			
COc1ccc2nc(-c3ccc(O)c(O)c3O)[nH]c2c1 [Compound 7, 4-(6-Methoxy-1H-benzimidazol-2-yl)benzene-1,2,3-triol]		> 500 µM	3.870	3.589		> 500 µM			inactive		
CCOC(=O)c1ccc2[nH]c(-c3ccc(O)c(C)c3O)nc2c1 [Compound 8, Ethyl 2-(2,4-dihydroxy-3-methylphenyl)-1H-benzimidazole-5-carboxylate]	137.8	0.184 ± 0.022 µM	4.097	2.566	0.125 ± 0.06 µM	25.35 ± 0.232 µM					
CCOC(=O)c1ccc2[nH]c(-c3cc(CC)c(O)cc3O)nc2c1 [Compound 9, Ethyl 2-(5-ethyl-2,4-dihydroxyphenyl)-1H-benzimidazole-5-carboxylate]	45.6	0.962 ± 0.023 µM	4.160	3.067		43.86 ± 0.381 µM					
CCOC(=O)c1ccc2[nH]c(-c3c(O)cc(O)cc3O)nc2c1 [Compound 10, Ethyl 2-(2,4,6-trihydroxyphenyl)-1H-benzimidazole-5-carboxylate]		> 500 µM	3.237	2.088		> 500 µM			inactive		
Cc1c(O)ccc(-c2nc3ccc(C#N)cc3[nH]2)c1O [Compound 11, 2-(2,4-Dihydroxy-3-methylphenyl)-1H-benzimidazole-6-carbonitrile]		> 500 µM	3.867	3.590		> 500 µM					
CCc1cc(-c2nc3ccc(C#N)cc3[nH]2)c(O)cc1O [Compound 12, 2-(5-Ethyl-2,4-dihydroxyphenyl)-1H-benzimidazole-6-carbonitrile]		> 500 µM	4.854	3.360	0.209 ± 0.02 µM	> 500 µM					
O=[N+]([O-])c1ccc2nc(-c3ccc(O)cc3O)[nH]c2c1 [Compound 13, 4-(6-Nitro-1H-benzimidazol-2-yl)benzene-1,3-diol]	71.7	1.49 ± 0.118 µM	4.655	2.475		106.6 ± 0.201 µM					
Cc1c(O)ccc(-c2nc3ccc([N+](=O)[O-])cc3[nH]2)c1O [Compound 14, 2-Methyl-4-(6-nitro-1H-benzimidazol-2-yl)benzene-1,3-diol]	88.1	1 ± 0.196 µM	4.596	2.674		88.36 ± 0.155 µM					
Oc1ccc(-c2nc3ccccc3[nH]2)c(O)c1 [bib-1,3-diol, 4-(1H-benzimidazol-2-yl)benzene-1,3-diol, reference compound]	109.2	0.284 ± 0.014 µM	2.979	1.732		31.02 ± 0.133 µM					
Clc1ccc2[nH]c(-c3ccc(OCCN4CCCCC4)cc3)nc2c1 [compound a]										0.13 µM	
CCN(CC)Cc1cc(-c2nc3cc([N+](=O)[O-])ccc3[nH]2)ccc1O [compound b]										0.93 µM	
CN1c2c(nn(-c3ccc(-c4nc5ccccc5[nH]4)cc3)c2-c2ccccc2)-c2ccccc2S1(=O)=O [compound f]										0.011 µM	
O=C1c2ccccc2C(=O)N1CCCn1c[n+](Cc2cccc3ccccc23)c2ccccc21 [d]										0.056 µM	
C=Cc1ccc(C[n+]2cn(C)c3ccccc32)cc1 [e]										0.045 µM	
CN(C)C(=O)Oc1cccc([N+](C)(C)C)c1 [neostigmine, reference compound]											0.068 ± 0.005 µM
C[C@@H]1O[C@@H](OC[C@H]2O[C@@H](Oc3c(-c4ccc(O)c(O)c4)oc4cc(O)cc(O)c4c3=O)[C@H](O)[C@@H](O)[C@@H]2O)[C@H](O)[C@H](O)[C@H]1O [rutin, reference compound]					0.087 ± 0.04 µM						

From publication PMC6995558, “Biological Evaluation, Molecular Docking, and SAR Studies of Novel 2-(2,4-Dihydroxyphenyl)-1H- Benzimidazole Analogues” (Biomolecules, 2019)
